Measured values taken from patent US4499106A, “Lipolytic composition and method of treating obesity” (Boehringer Ingelheim KG, priority 1983, dated 1985).
Entries after “also recorded” stand apart in the source; their conditions may differ.

Legend:
[1] = system: unesterified fatty acids in the blood plasma; assay: Metabolic effects in blood plasma of fed rats: unesterified fatty acids; assay type: in vivo, rat; details: for Unesterified Fatty Acids Δ%: blood plasma
Source text: (§9) Metabolic effects in the blood plasma of fed rats.
(§10) μmol/l (unesterified fatty acids) and mmol/l (lactate).
(§11) Averages ± S.E.M. N of the treated groups = 5-6.

[2] = system: lactate in the blood plasma; assay: Metabolic effects in blood plasma of fed rats: lactate; assay type: in vivo, rat; details: for Lactate Δ%: blood plasma; for lactacidemia compared with Me 693: vs Me 693, in words
Source text: as §9, §10, §11

[3] = system: unesterified fatty acids in the blood; assay: Unesterified fatty acids, conscious rat (maximum percentage change vs control); assay type: in vivo
Source text: (§1) If the effects on the heart (heart rate), circulation (diastolic blood pressure, peripheral vasodilation) and bronchi, on the one hand, and the increase in the unesterified fatty acids in the blood after the administration of Me 693, on the other hand, are compared with the effects of isoprenaline and fenoterol, it is clear that the cardiovascular and bronchospasmolytic effects are much greater after administration of the comparison substances than with the Me 693, whereas the reverse is true of the lipolytic effects.
(§2) Metabolic and cardiovascular effects and bronchospasmolytic effects of Me
(§3) isoprenaline and fenoterol in animals of various types. The table gives
(§4) maximum percentage changes compared with control values.

heart (heart rate) = assay: Heart rate, anesthetized dog (maximum percentage change vs control); assay type: in vivo; details: for Heart Rate Δ%: maximum change; for cardiovascular effects compared with Me 693: vs Me 693, in words
Source text: as §1, §2, §3, §4

[4] = system: circulation (diastolic blood pressure); assay: Diastolic blood pressure, anesthetized dog (maximum percentage change vs control); assay type: in vivo
Source text: as §1, §2, §3, §4

[5] = system: circulation (peripheral vasodilation); assay: Peripheral vasodilation, anesthetized dog (maximum percentage change vs control); assay type: in vivo
Source text: as §1, §2, §3, §4

bronchi (ACh spasm) = assay: Bronchospasmolysis, anesthetized guinea pig (inhibition of ACh spasm); assay type: in vivo; details: for bronchospasmolytic effects compared with Me 693: vs Me 693, in words
Source text: as §1, §2, §3, §4

[6] = system: unesterified fatty acids in the blood; assay: Metabolic effects of oral administration to three conscious dogs (unesterified fatty acids, triglycerides, lactate); assay type: in vivo, dog; details: for Triglycerides Δ% / Unesterified Fatty Acids Δ%: maximum change
Procedure: (§5) A dose of only 0.1 mg/kg of Me 693 gives virtually a 100% increase in the unesterified fatty acids in the blood while the heart rate and the diastolic blood pressure are unaffected.
(§6) Metabolic and cardiovascular effects of Me 693 administered
(§7) orally to three conscious dogs. The table gives the maximum
(§8) percentage changes compared with the control values.

[7] = system: heart rate and diastolic blood pressure; assay: Cardiovascular effects of oral administration to three conscious dogs (heart rate, diastolic blood pressure); assay type: in vivo, dog; details: for Diastolic Blood Pressure Δ% / Heart Rate Δ%: maximum change
Procedure: as §5, §6, §7, §8

[8] = system: metabolism (development and release of heat); assay: Calorimetric effects after intravenous administration to rabbits; assay type: in vivo, rabbit; details: 0.5 mg/kg intravenously
[9] = system: lipolysis and glycogenolysis; assay: Summary of animal experiments: lipolytic and glycogenolytic (lactate) activity; assay type: in vivo; details: in words
Source text: To summarize, the animal experiments with Me 693 have given the following results: […]

SMILES: CC(C)NCC(O)c1ccc(O)c(O)c1 (stereo not shown) [Isoprenaline, isoprenaline]
- Unesterified Fatty Acids Δ% ([1]; 0.1 mg/kg s.c.): +15%
- Unesterified Fatty Acids Δ% ([1]; 1.0 mg/kg s.c.): +27%
- Lactate Δ% ([2]; 0.1 mg/kg s.c.): +112%
- Lactate Δ% ([2]; 1.0 mg/kg s.c.): +148%
- lactacidemia compared with Me 693 [2]: significantly greater
- Unesterified Fatty Acids Δ% ([3]; 0.1 mg/kg s.c.): +15%
- Unesterified Fatty Acids Δ% ([3]; 1.0 mg/kg s.c.): +27%
- Heart Rate Δ% (heart (heart rate); 0.1 μg/kg i.v.): +18%
- Heart Rate Δ% (heart (heart rate); 1 μg/kg i.v.): +37%
- Heart Rate Δ% (heart (heart rate); 10 μg/kg i.v.): +56%
- cardiovascular effects compared with Me 693 (heart (heart rate)): much greater
- Diastolic Blood Pressure Δ% ([4]; 0.1 μg/kg i.v.): -40%
- Diastolic Blood Pressure Δ% ([4]; 1 μg/kg i.v.): -62%
- Diastolic Blood Pressure Δ% ([4]; 10 μg/kg i.v.): -71%
- Peripheral Vasodilation Δ% ([5]; 0.001 μg/kg i.a. (so in the source)): -28%
- Peripheral Vasodilation Δ% ([5]; 0.003 μg/kg i.a.): -24%
- Peripheral Vasodilation Δ% ([5]; 0.03 μg/kg i.a.): -33%
- Bronchospasmolysis, % Inhibition of ACh spasm (bronchi (ACh spasm); 10 μg/kg i.v.): 76-94%
- bronchospasmolytic effects compared with Me 693 (bronchi (ACh spasm)): much greater

SMILES: CC(Cc1ccc(O)cc1)NCC(O)c1cc(O)cc(O)c1 (stereo not shown) [Fenoterol, fenoterol]
- Unesterified Fatty Acids Δ% ([1]; 0.1 mg/kg s.c.): +18%
- Unesterified Fatty Acids Δ% ([1]; 1.0 mg/kg s.c.): +30%
- Lactate Δ% ([2]; 0.1 mg/kg s.c.): +33%
- Lactate Δ% ([2]; 1.0 mg/kg s.c.): +109%
- lactacidemia compared with Me 693 [2]: significantly greater
- Unesterified Fatty Acids Δ% ([3]; 0.1 mg/kg s.c.): +18%
- Unesterified Fatty Acids Δ% ([3]; 1.0 mg/kg s.c.): +30%
- Heart Rate Δ% (heart (heart rate); 0.1 μg/kg i.v.): +3%
- Heart Rate Δ% (heart (heart rate); 1 μg/kg i.v.): +27%
- Heart Rate Δ% (heart (heart rate); 10 μg/kg i.v.): +50%
- cardiovascular effects compared with Me 693 (heart (heart rate)): much greater
- Diastolic Blood Pressure Δ% ([4]; 0.1 μg/kg i.v.): -13%
- Diastolic Blood Pressure Δ% ([4]; 1 μg/kg i.v.): -33%
- Diastolic Blood Pressure Δ% ([4]; 10 μg/kg i.v.): -54%
- Peripheral Vasodilation Δ% ([5]; 1 μg/kg i.a.): -20%
- Peripheral Vasodilation Δ% ([5]; 3 μg/kg i.a.): -28%
- Bronchospasmolysis, % Inhibition of ACh spasm (bronchi (ACh spasm); 10 μg/kg i.v.): 67-100%
- bronchospasmolytic effects compared with Me 693 (bronchi (ACh spasm)): much greater

SMILES: CC(COc1ccccc1)NCC(O)c1ccc(O)c(NS(=O)(=O)N(C)C)c1 (stereo not shown) [Me 693, 1-(4-hydroxy-3-dimethylamino-sulfonamidophenyl)-1-hydroxy-2-(1-phenoxy-isopropylamino)ethane]
- Unesterified Fatty Acids Δ% ([1]; 0.1 mg/kg s.c.): +34%
- Unesterified Fatty Acids Δ% ([1]; 1 mg/kg oral): +63%
- Unesterified Fatty Acids Δ% ([1]; 1.0 mg/kg s.c.): +190%
- increase in unesterified fatty acids in the blood vs comparison substances ([1]; identical dosage, vs isoprenaline and fenoterol, in words): much higher increase
- Lactate Δ% ([2]; 0.1 mg/kg s.c.): 0%
- Lactate Δ% ([2]; 1.0 mg/kg s.c.): +34%
- Unesterified Fatty Acids Δ% ([3]; 0.1 mg/kg s.c.): +34%
- Unesterified Fatty Acids Δ% ([3]; 1.0 mg/kg s.c.): +190%
- Heart Rate Δ% (heart (heart rate); 10 μg/kg i.v.): +8%
- Heart Rate Δ% (heart (heart rate); 20 μg/kg i.v.): +5%
- Diastolic Blood Pressure Δ% ([4]; 10 μg/kg i.v.): -24%
- Diastolic Blood Pressure Δ% ([4]; 20 μg/kg i.v.): -23%
- Peripheral Vasodilation Δ% ([5]; 10 μg/kg i.a.): -14%
- Peripheral Vasodilation Δ% ([5]; 30 μg/kg i.a.): -15%
- Bronchospasmolysis, % Inhibition of ACh spasm (bronchi (ACh spasm); 100 μg/kg i.v.): 0-2%
- Triglycerides Δ% ([6]; 0.1 mg/kg oral): +18%
- Triglycerides Δ% ([6]; 0.3 mg/kg oral): +10%
- Unesterified Fatty Acids Δ% ([6]; 0.3 mg/kg oral): +95%
- Triglycerides Δ% ([6]; 1.0 mg/kg oral): +37%
- Unesterified Fatty Acids Δ% ([6]; 1.0 mg/kg oral): +112%
- unesterified fatty acids (in words) ([6]; 0.3 and 1 mg/kg oral): increased still further to a high level
- heart rate and diastolic blood pressure (in words) ([7]; 0.1 mg/kg oral): unaffected
- Diastolic Blood Pressure Δ% ([7]; 0.1 mg/kg oral): 0%
- Heart Rate Δ% ([7]; 0.1 mg/kg oral): 0%
- Diastolic Blood Pressure Δ% ([7]; 0.3 mg/kg oral): -15%
- Heart Rate Δ% ([7]; 0.3 mg/kg oral): +36%
- Diastolic Blood Pressure Δ% ([7]; 1.0 mg/kg oral): -26%
- Heart Rate Δ% ([7]; 1.0 mg/kg oral): +95%
- blood pressure (in words) ([7]; 0.3 and 1 mg/kg oral): reductions in blood pressure
- heart rate (in words) ([7]; 0.3 and 1 mg/kg oral): dose-dependent increases in heart rate
- core temperatures [8]: higher core temperatures
- development and release of heat [8]: increased significantly
- heart rate and ear temperature [8]: slight increase in heart rate and ear temperature
- oxygen consumption [8]: increased oxygen consumption
- respiratory quotient [8]: reduction in the respiratory quotient
- differentiation between lipolytic and glycogenolytic activities ([9]; animal experiments): Extreme differentiation between the lipolytic and glycogenolytic activities
- glycogenolytic effect ([9]; animal experiments): virtually negligible glycogenolytic activity; also recorded: does not have the glycogenolytic effect
- lipolytic effect ([9]; animal experiments): Strong lipolytic activity; also recorded: particularly long-lasting selective lipolytic effect
- blood lactate [9]: no changes are observed in blood lactate
